The term pKa denotes the pH at which an ionisable group is half protonated. High values mean a weaker acid or stronger base, low ones a stronger acid or weaker base.

This data set can be described thus: Photostability, pKa was evaluated. Format: physicochemical.

Regarding `CCOC(=O)c1cc2cc(F)c(O)c(F)c2oc1=O`, the pKa came out at 3.8.
With `Cc1cc(=O)oc2c(F)c(O)ccc12` the figure was 6.4; with `Cc1c(CC(=O)O)c(=O)oc2c(F)c(O)c(F)cc12`, 4.7; with `O=C(O)c1cc2ccc(O)cc2oc1=O`, 7.5.
Regarding `O=C(O)c1cc2cc(F)c(O)c(F)c2oc1=O`, the pKa is 3.7.

Source of the values: ChEMBL document CHEMBL1130657, “Synthesis of novel fluorinated coumarins: excellent UV-light excitable fluorescent dyes” (Bioorg Med Chem Lett, 1998).
